From patent US12202835B2, “Substituted aromatic ring-linked dioxinoquinazolines and dioxinoquinolines as kinase inhibitors” (BEIJING SCITECH-MQ PHARMACEUTICALS LIMITED, priority 2018, dated 2025)

Experiments:
Type in all cases: biochemical
c-MET kinase = c-MET kinase (Homo sapiens (Human), UniProt P08581); assay: Assay of small molecular compounds for inhibiting the activity of c-MET kinase (LANCE TR-FRET); conditions: read-out: CMET IC50
Method: The assay is based on the LANCE TR-FRET technology of Perkin Elmer Inc., and the assay method is as follows: • 1. Dilution of compounds: a total of 11 concentrations were obtained using a 3-fold gradient dilution from the highest concentration of 2500 nM (the maximum final concentration of the drug used in this assay was 2500 nM, and the minimum final concentration was 0.042 nM). • 2. 2.5 μL of the gradient-diluted compounds were taken with a transfer pipette to a 384-well plate. • 3. Addition of enzyme: 5 μL of 2×c-MET kinase solution (with a concentration of 2 nM) was taken with a transfer pipette to the corresponding reaction well of the 384-well plate, mixed well and pre-reacted at room temperature for 5 minutes. • 4. 2.5 μL 4× Ultra ULight™-JAK-1 (Tyr1023) Peptide (with a concentration of 400 nM)/ATP (with a concentration of 40 μM) mixture was taken with a transfer pipette to the corresponding reaction well of the 384-well plate. • 5. Negative control: 2.5 μL/well 4× substrate/ATP mixture and 7.5 μL 1× Kinase Assay Buffer were added to the wells of the 384-well plate. • 6. Positive control: 2.5 μL/well 4× substrate/ATP mixture, 2.5 μL/well 1× Kinase Assay Buffer containing 16% DMSO, and 5 μL/well 2× c-MET kinase solution were added to the 384-well plate. The final concentration of DMSO in the reaction system was 4%. • 7. The mixture was mixed well and then centrifuged and reacted at room temperature in dark for 60 min. • 8. Termination of the enzymatic reaction: 5 μL of 4× stop solution was taken with a transfer pipette to the wells of the 384-well plate, mixed and then centrifuged, and reacted at room temperature for 5 min. • 9. Development of the reaction: 5 μL of 4× detection solution was taken with a transfer pipette to the wells of the 384-well plate for color development, and the mixture was mixed and then centrifuged and reacted at room temperature for 60 min. • 10. The 384-well plate was placed into the Envision plate reader and the signal was detected using the appropriate program. • 11. Analysis and processing of the raw data: • 12. The drug concentrations and the corresponding inhibition rates were input into GraphPad Prism5 for calculation, and the inhibition rate of the compounds were calculated as follows: inhibition rate (%)=(reading of positive well−reading of experimental well)/(reading of positive control well−reading of negative control well)×100%. Processing with GraphPad Prism5 software yielded the corresponding IC50 values (the concentration of the compound at which 50% of the highest inhibition of the enzyme is achieved).

MER kinase = MER kinase (Homo sapiens (Human), UniProt Q12866); assay: Assay of small molecular compounds for inhibiting the activity of MER kinase (LANCE TR-FRET)
MER kinase, sequence (Q12866 21-999): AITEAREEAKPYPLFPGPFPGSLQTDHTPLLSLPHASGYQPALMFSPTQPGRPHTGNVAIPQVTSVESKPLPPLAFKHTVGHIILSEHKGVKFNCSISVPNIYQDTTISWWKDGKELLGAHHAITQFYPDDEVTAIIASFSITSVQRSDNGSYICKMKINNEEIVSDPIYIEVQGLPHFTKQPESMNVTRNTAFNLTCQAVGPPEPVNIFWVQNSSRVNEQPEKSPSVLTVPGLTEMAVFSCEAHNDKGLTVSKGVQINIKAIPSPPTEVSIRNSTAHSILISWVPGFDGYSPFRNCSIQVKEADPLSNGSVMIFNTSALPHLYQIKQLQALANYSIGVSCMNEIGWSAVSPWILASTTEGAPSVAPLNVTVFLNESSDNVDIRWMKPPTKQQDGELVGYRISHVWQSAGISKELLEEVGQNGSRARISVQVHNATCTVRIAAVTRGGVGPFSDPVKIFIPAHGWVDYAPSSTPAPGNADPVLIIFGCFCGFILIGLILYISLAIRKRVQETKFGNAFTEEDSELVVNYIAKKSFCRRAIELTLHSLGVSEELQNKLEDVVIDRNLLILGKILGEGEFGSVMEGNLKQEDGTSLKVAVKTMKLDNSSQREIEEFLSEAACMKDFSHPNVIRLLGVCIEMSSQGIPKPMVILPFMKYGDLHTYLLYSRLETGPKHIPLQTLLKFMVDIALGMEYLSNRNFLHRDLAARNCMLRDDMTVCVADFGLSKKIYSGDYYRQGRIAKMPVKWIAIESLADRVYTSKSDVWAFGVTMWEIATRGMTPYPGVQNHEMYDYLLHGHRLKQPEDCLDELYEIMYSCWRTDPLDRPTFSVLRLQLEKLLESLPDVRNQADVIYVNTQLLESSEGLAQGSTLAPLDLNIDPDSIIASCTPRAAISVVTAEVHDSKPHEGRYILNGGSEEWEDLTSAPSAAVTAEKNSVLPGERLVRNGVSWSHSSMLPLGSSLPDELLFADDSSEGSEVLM
Method: The assay of small molecular compounds for inhibiting the activity of MER kinase is based on the LANCE TR-FRET technology of Perkin Elmer Inc., and the assay method is as follows: • 1. Dilution of compounds: a total of 11 concentrations were obtained using a 3-fold gradient dilution from the highest concentration of 2500 nM (the maximum final concentration of the drug used in this assay was 2500 nM, and the minimum final concentration was 0.042 nM). • 2. 2.5 μL of the gradient-diluted compounds were taken with a transfer pipette to a 384-well plate. • 3. Addition of enzyme: 5 μL of 2×MER kinase solution (with a concentration of 1 nM) was taken with a transfer pipette to the corresponding reaction well of the 384-well plate, mixed well and pre-reacted at room temperature for 5 minutes. • 4. 2.5 μL 4× ULight-labeled Ploy GT (with a concentration of 200 nM)/ATP (with a concentration of 20 μM) mixture was taken with a transfer pipette to the corresponding reaction well of the 384-well plate. • 5. Negative control: 2.5 μL/well 4× substrate/ATP mixture and 7.5 μL 1× Kinase Assay Buffer were added to the wells of the 384-well plate.
(§1) Positive control: 2.5 μL/well 4× substrate/ATP mixture, 2.5 μL/well 1× Kinase Assay Buffer containing 4% DMSO, and 5 μL/well 2×MER kinase solution were added to the 384-well plate. The final concentration of DMSO in the reaction system was 1%. • 6. The mixture was mixed well and then centrifuged and reacted at room temperature in dark for 60 min. • 7. Termination of the enzymatic reaction: 5 μL of 4× stop solution was taken with a transfer pipette to the wells of the 384-well plate, mixed and then centrifuged, and reacted at room temperature for 5 min. • 8. Development of the reaction: 5 μL of 4× detection solution was taken with a transfer pipette to the wells of the 384-well plate for color development, and the mixture was mixed and then centrifuged and reacted at room temperature for 60 min. • 9. The 384-well plate was placed into the Envision plate reader and the signal was detected using the appropriate program. • 10. Analysis and processing of the raw data:
The drug concentrations and the corresponding inhibition rates were input into GraphPad Prism5 for calculation, and the inhibition rate of the compounds were calculated as follows: inhibition rate (%)=(reading of positive well−reading of experimental well)/(reading of positive control well−reading of negative control well)×100%. Processing with GraphPad Prism5 software yielded the corresponding IC50 values (the concentration of the compound at which 50% of the highest inhibition of the enzyme is achieved).

TRKA kinase = TRKA kinase (Homo sapiens (Human), UniProt P04629); assay: Assay of small molecular compounds for inhibiting the activity of TRKA kinase (LANCE TR-FRET)
TRKA kinase, sequence (P04629 33-796): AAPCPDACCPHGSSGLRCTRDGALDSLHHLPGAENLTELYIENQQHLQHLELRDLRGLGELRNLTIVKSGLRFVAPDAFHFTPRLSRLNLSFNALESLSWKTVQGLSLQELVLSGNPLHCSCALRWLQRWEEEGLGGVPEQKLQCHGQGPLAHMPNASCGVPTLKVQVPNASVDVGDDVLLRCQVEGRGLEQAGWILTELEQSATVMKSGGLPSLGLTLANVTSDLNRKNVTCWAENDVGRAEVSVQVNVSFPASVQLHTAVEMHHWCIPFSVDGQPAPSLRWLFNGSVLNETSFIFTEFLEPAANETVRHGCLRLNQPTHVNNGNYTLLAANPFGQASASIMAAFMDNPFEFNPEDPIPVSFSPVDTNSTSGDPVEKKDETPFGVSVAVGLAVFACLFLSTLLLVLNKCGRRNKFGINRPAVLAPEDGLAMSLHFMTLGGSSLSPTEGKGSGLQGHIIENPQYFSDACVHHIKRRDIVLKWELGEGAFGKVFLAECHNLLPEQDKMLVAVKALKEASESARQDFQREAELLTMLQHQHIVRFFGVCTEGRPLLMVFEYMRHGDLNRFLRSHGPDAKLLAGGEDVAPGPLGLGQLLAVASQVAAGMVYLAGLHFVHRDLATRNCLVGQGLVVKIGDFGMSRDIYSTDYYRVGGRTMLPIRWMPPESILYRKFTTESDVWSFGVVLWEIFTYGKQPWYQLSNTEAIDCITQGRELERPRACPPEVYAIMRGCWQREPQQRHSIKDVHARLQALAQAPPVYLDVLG
Method: The assay of small molecular compounds for inhibiting the activity of TRKA kinase is based on the LANCE TR-FRET technology of Perkin Elmer Inc., and the assay method is as follows: • 1. […] 2.5 μL of the gradient-diluted compounds were taken with a transfer pipette to a 384-well plate. • 3. Addition of enzyme: 5 μL of 2×TRKA kinase solution (with a concentration of 2 nM) was taken with a transfer pipette to the corresponding reaction well of the 384-well plate, mixed well and pre-reacted at room temperature for 5 minutes. • 4. 2.5 μL 4× Ultra ULight-labeled TK Peptide (with a concentration of 400 nM)/ATP (with a concentration of 40 μM) mixture was taken with a transfer pipette to the corresponding reaction well of the 384-well plate. • 5. Negative control: 2.5 μL/well 4× substrate/ATP mixture and 7.5 μL 1× Kinase Assay Buffer were added to the wells of the 384-well plate.
as §1, with “2×TRKA” for “2×MER”, “program.” for “program. • 10. Analysis and processing of the raw data:”

c-MET kinase, sequence (P08581 25-1390): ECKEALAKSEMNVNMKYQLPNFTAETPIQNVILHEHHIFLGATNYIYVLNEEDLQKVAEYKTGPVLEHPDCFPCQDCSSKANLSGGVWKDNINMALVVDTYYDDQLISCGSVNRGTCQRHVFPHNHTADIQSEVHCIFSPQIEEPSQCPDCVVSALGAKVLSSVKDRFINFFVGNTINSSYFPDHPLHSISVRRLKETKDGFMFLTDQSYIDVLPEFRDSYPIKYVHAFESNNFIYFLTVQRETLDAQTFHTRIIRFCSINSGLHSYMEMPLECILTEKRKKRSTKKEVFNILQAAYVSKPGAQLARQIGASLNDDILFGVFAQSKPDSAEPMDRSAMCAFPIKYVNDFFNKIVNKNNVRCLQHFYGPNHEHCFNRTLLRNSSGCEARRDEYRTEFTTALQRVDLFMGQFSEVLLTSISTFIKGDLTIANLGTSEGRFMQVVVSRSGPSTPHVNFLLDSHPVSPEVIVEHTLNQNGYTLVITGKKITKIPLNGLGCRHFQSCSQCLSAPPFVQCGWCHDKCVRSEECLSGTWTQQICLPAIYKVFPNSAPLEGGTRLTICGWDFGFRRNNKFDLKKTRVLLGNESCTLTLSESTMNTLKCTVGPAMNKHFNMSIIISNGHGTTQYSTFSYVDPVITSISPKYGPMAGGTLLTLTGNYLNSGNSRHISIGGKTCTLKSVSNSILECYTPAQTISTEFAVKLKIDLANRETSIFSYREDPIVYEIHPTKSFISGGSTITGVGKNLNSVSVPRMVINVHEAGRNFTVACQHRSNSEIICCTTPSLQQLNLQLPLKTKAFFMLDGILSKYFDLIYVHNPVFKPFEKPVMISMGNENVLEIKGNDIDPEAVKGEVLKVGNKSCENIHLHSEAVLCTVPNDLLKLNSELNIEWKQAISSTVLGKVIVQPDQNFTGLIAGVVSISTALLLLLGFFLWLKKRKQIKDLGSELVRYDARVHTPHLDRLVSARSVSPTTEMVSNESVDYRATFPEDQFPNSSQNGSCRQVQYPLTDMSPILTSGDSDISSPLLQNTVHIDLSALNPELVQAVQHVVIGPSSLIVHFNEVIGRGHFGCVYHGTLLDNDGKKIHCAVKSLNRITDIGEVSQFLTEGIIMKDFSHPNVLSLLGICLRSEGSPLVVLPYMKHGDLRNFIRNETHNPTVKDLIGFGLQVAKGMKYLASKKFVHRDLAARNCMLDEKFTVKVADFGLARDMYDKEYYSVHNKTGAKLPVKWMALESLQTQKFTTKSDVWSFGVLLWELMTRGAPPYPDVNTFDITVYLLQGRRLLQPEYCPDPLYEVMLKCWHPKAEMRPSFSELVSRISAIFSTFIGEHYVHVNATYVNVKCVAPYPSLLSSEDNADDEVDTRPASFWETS

| SMILES | IC50 (c-MET kinase) [nM] | IC50 (MER kinase) [nM] | IC50 (TRKA kinase) [nM] |
| --- | --- | --- | --- |
| CCOc1cn(-c2ccc(F)cc2C)nc1C(=O)Nc1ccc(Oc2ncnc3cc(OC)c4c(c23)OCCO4)c(F)c1 [Example 9, 1-(4-fluoro-2-methylphenyl)-N-(3-fluoro-4-((5-methoxy-2,3-dihydro-[1,4]dioxino[2,3-f]quinazolin-10-yl)oxy)phenyl)-4-ethoxy-1H-pyrazole-3-carboxamide] | 50 to 500 | 500 to 5000 |  |
| Cc1cc(F)ccc1-n1ccc(C(=O)Nc2ccc(Oc3ncnc4cc(OCCCN5CCOCC5)c5c(c34)OCCO5)c(F)c2)n1 [Example 10, 1-(4-fluoro-2-methylphenyl)-N-(3-fluoro-4-((5-(3-morpholinopropoxy)-2,3-dihydro-[1,4]dioxino[2,3-f]quinazolin-10-yl)oxy)phenyl)-1H-pyrazole-3-carboxamide] | ≤ 50 | 50 to 500 |  |
| COc1cc2nccc(Oc3ccc(NC(=O)c4cn(C(C)C)c(=O)n(-c5ccc(F)cc5)c4=O)cc3F)c2c2c1OCCO2 [Example 14, N-(3-fluoro-4-((5-methoxy-2,3-dihydro-[1,4]dioxino[2,3-f]quinolin-10-yl)oxy)phenyl)-3-(4-fluorophenyl)-1-isopropyl-2,4-dioxo-1,2,3,4-tetrahydropyrimidine-5-carboxamide] | ≤ 50 | ≤ 50 | 50 to 500 |
| COc1cc2nccc(Oc3ccc(NC(=O)c4ccn(-c5ccc(F)cc5C)n4)cc3F)c2c2c1OCCO2 [Example 23, 1-(4-fluoro-2-methylphenyl)-N-(3-fluoro-4-((5-methoxy-2,3-dihydro-[1,4]dioxino[2,3-f]quinolin-10-yl)oxy)phenyl)-1H-pyrazole-3-carboxamide] | 50 to 500 | 500 to 5000 | 50 to 500 |
| CCOc1cn(-c2ccc(F)cc2C)nc1C(=O)Nc1ccc(Oc2ccnc3cc(OC)c4c(c23)OCCO4)c(F)c1 [Example 25, 1-(4-fluoro-2-methylphenyl)-N-(3-fluoro-4-((5-methoxy-2,3-dihydro-[1,4]dioxino[2,3-f]quinolin-10-yl)oxy)phenyl)-4-ethoxy-1H-pyrazole-3-carboxamide] | 50 to 500 | 50 to 500 | 50 to 500 |
| COc1cc2nccc(Oc3ccc(NC(=O)c4cn(CC(C)C)c(=O)n(-c5ccc(F)cc5)c4=O)cc3F)c2c2c1OCCO2 [Example 47, N-(3-fluoro-4-((5-methoxy-2,3-dihydro-[1,4]dioxino[2,3-f]quinolin-10-yl)oxy)phenyl)-3-(4-fluorophenyl)-1-isobutyl-2,4-dioxo-1,2,3,4-tetrahydropyrimidine-5-carboxamide] | ≤ 50 | 50 to 500 | 50 to 500 |
| COc1cc2nccc(Oc3ccc(NC(=O)c4cn(CC5CC5)c(=O)n(-c5ccc(F)cc5)c4=O)cc3F)c2c2c1OCCO2 [Example 48, N-(3-fluoro-4-((5-methoxy-2,3-dihydro-[1,4]dioxino[2,3-f]quinolin-10-yl)oxy)phenyl)-3-(4-fluorophenyl)-1-(cyclopropylmethyl)-2,4-dioxo-1,2,3,4-tetrahydropyrimidine-5-carboxamide] | ≤ 50 | 50 to 500 | 50 to 500 |
| CC(C)COc1cc2nccc(Oc3ccc(NC(=O)c4cn(C)c(=O)n(-c5ccc(F)cc5)c4=O)cc3F)c2c2c1OCCO2 [Example 83, N-(3-fluoro-4-((5-(isobutoxy)-2,3-dihydro-[1,4]dioxino[2,3-f]quinolin-10-yl)oxy)phenyl)-3-(4-fluorophenyl)-1-methyl-2,4-dioxo-1,2,3,4-tetrahydropyrimidine-5-carboxamide] | 500 to 5000 | 50 to 500 | 50 to 500 |
| Cn1cc(C(=O)Nc2ccc(Oc3ccnc4cc(OCC5CC5)c5c(c34)OCCO5)c(F)c2)c(=O)n(-c2ccc(F)cc2)c1=O [Example 84, N-(3-fluoro-4-((5-(cyclopropylmethoxy)-2,3-dihydro-[1,4]dioxino[2,3-f]quinolin-10-yl)oxy)phenyl)-3-(4-fluorophenyl)-1-methyl-2,4-dioxo-1,2,3,4-tetrahydropyrimidine-5-carboxamide] | 50 to 500 | 50 to 500 | 50 to 500 |
| CC(C)n1cc(C(=O)Nc2ccc(Oc3ccnc4cc(OC5COC5)c5c(c34)OCCO5)c(F)c2)c(=O)n(-c2ccc(F)cc2)c1=O [Example 89, N-(3-fluoro-4-((5-((oxetan-3-yl)oxy)-2,3-dihydro-[1,4]dioxino[2,3-f]quinolin-10-yl)oxy)phenyl)-3-(4-fluorophenyl)-1-isopropyl-2,4-dioxo-1,2,3,4-tetrahydropyrimidine-5-carboxamide] | 50 to 500 | ≤ 50 | 50 to 500 |
| COc1cc2nccc(Oc3ccc(NC(=O)c4cn(CCCN5CCOCC5)c(=O)n(-c5ccc(F)cc5)c4=O)cc3F)c2c2c1OCCO2 [Example 102, N-(3-fluoro-4-((5-methoxy-2,3-dihydro-[1,4]dioxino[2,3-f]quinolin-10-yl)oxy)phenyl)-3-(4-fluorophenyl)-1-(3-morpholinopropyl)-2,4-dioxo-1,2,3,4-tetrahydropyrimidine-5-carboxamide] | ≤ 50 | ≤ 50 | 50 to 500 |
| COc1cc2nccc(Oc3ccc(NC(=O)c4cn(C(C)C)c(=O)n(-c5ccc(C)cc5)c4=O)cc3F)c2c2c1OCCO2 [Example 107, N-(3-fluoro-4-((5-methoxy-2,3-dihydro-[1,4]dioxino[2,3-f]quinolin-10-yl)oxy)phenyl)-3-(4-methylphenyl)-1-isopropyl-2,4-dioxo-1,2,3,4-tetrahydropyrimidine-5-carboxamide] | 50 to 500 | ≤ 50 | 500 to 5000 |
